According to PubChem BioAssay AID1259407 (Chemical Carcinogenesis Research Information System (CCRIS), 2018):
Calls of active or inactive are those of the source. The rule behind the calls is not given here.

Tested on: CCRIS mutagenicity, Ames/micronucleus/aberration tests
Experiment: CCRIS mutagenicity studies

**Q.** How did the mutagenic call (Test System: AMES SALMONELLA TYPHIMURIUM, Strain/Indicator: TA100, Metabolic Activation: RAT, INTACT HEPATOCYTES, AROCLOR 1254, Method: PREINCUBATION) turn out when `Cc1ccc2cc3c(ccc4ccccc43)cc2c1` was run?
**A.** Its mutagenic call is “active; positive”.

**Q.** And the mutagenic call (Test System: AMES SALMONELLA TYPHIMURIUM, Strain/Indicator: TA100, Metabolic Activation: RAT, NADPH-FORTIFIED HOMOGENIZED HEPATOCYTES, AROCLOR 1254, Method: PREINCUBATION)?
**A.** Its mutagenic call is “active; positive”.

**Q.** What about the mutagenic call (Test System: AMES SALMONELLA TYPHIMURIUM, Strain/Indicator: TA100, Metabolic Activation: RAT, SONICATED HEPATOCYTES, AROCLOR 1254, Method: PREINCUBATION) of the same compound?
**A.** The mutagenic call was “active; positive”.

**Q.** How did the mutagenic call (Test System: AMES SALMONELLA TYPHIMURIUM, Strain/Indicator: TA100, Metabolic Activation: RAT, LIVER, S-9, PHENOBARBITAL AND BETA-NAPHTHOFLAVONE, Method: PREINCUBATION) turn out when `COc1ccc2c(c1)-c1c(OC)c(OC)cc3c1C(C2=O)N(C)CC3` (stereo unspecified) was run?
**A.** Its mutagenic call is “inactive; negative”.

**Q.** Which mutagenic call (Test System: CHINESE HAMSTER V-79, Strain/Indicator: V-79/6-THIOGUANINE, Metabolic Activation: NONE, Method: STANDARD PLATE) does the source give for `Oc1c(Cl)cc(Cl)c(Cl)c1O` here?
**A.** The mutagenic call was “active; positive”.

**Q.** What about the mutagenic call (Test System: CHINESE HAMSTER V-79, Strain/Indicator: V-79/6-THIOGUANINE, Metabolic Activation: PRIMARY RAT HEPATOCYTES, Method: STANDARD PLATE) of the same compound?
**A.** The mutagenic call was “inactive; negative”.
